Measured values: patent US12043612B2, “Methods of manufacturing a bifunctional compound, ultrapure forms of the bifunctional compound, and dosage forms comprising the same” (Arvinas Operations, Inc., priority 2020, dated 2024)

How the values were obtained:
[1] = Metabolite in liver microsomes and hepatocytes; assay type: in vitro ADME; details: male human, monkey, dog, rat, and mouse liver microsomes and hepatocytes
[2] = Metabolite in female mouse liver microsomes; assay type: in vitro ADME
[3] = 90-minute non-sink dissolution, pH 2 HCl shifted to pH 6.5 SIF; assay type: physicochemical; details: 1 mg/mL in pH 2 HCl, shift to pH 6.5 SIF at 30 minutes
Description: FIG. 11 is a series of line graphs showing the dissolution of crystalline vs. amorphous Compound A API. API (1 mg/mL) is present in gastric conditions (pH=2), which is 2× diluted with FaSSIF at 30 minutes to increase the pH to 6.5. (API=active pharmaceutical ingredient; FaSSIF=fasted state simulated intestinal fluid.)
FIG. 12 is a series of line graphs showing the non-sink dissolution of spray-dried amorphous Compound A produced at multiple scales. API (500 μg/mL) is present in gastric conditions (pH=2), which is 2× Diluted with FaSSIF at 30 minutes to increase the pH to 6.5.
A 90-minute non-sink dissolution experiment was conducted in which a Compound A suspension was introduced into pH 2 HCl at a final concentration of 1 mg/mL, which was then periodically sampled and prepared for analysis via centrifugation. A shift to pH 6.5 SIF was carried out 30 minutes into the experiment.

[4] = Glass transition and recrystallization temperature of amorphous solids; assay type: physicochemical
Description: Thus, while crystals of Compound A are quite stable, there is a significant barrier to transforming to a crystalline state from an amorphous form. Indeed, a ramped temperature increase of a partially-crystalline sample does eventually lead to a recrystallization event, but not until a temperature of 200-220° C. is achieved. […] As discussed below, this robust resistance to crystallization is preserved even in the presence of water.
The amorphous form of pure Compound A is robust with a high Tg and even higher recrystallization temperature. The glass transition temperature does decrease under the plasticizing conditions of high humidity. However, the value is still well above the commonly applied 40-50° C. difference between Tg and any temperature the clinical presentation will encounter.

[5] = Stability of amorphous Compound A (spray-dried intermediate); assay type: physicochemical
Description: The stability of amorphous Compound A was assessed at three stability conditions: 2-8° C.; 25° C./60% RH; and 40° C./75% RH for a period of 12 months.
During stability testing, amorphous Compound A was stored in wire-tied low-density polyethylene bags placed in heat-induction sealed, high-density polyethylene (HDPE) bottles containing a desiccant canister, and capped with polypropylene-lined closures.

[6] = Membrane flux experiment (donor/receiver compartments, SIF bile salts); details: amorphous suspension as donor compartment contents
Description: A membrane flux experiment was conducted in which a fixed amount of compound was introduced into the donor compartment at various concentrations of the SIF bile salts, and appearance of drug was monitored on the receiver side.

[7] = Rat pharmacokinetic studies with solutions and spray-dried dispersions; details: male, rat, in vivo, po, 150 mg/kg
[8] = after 6 months of storage at 2-8° C.
[9] = after 12 months at 25° C./60% RH
[10] = after 12 months at 40° C./75% RH

N#Cc1ccc(O[C@H]2CC[C@H](NC(=O)c3ccc(N4CCC(C(=O)O)CC4)nn3)CC2)cc1Cl [Impurity 1]
occurrence as metabolite [1]: A process impurity resulting from over oxidation of Intermediate 2 in Step 2. This impurity is also a metabolite in male human, monkey, dog, rat, and mouse liver microsomes and hepatocytes

N#Cc1ccc(O[C@H]2CC[C@H](NC(=O)c3ccc(N4CCC(CO)CC4)nn3)CC2)cc1Cl [Intermediate 2, N-((1r,4r)-4-(3-chloro-4-cyanophenoxy)cyclohexyl)-6-(4-(hydroxymethyl)piperidin-1-yl)pyridazine-3-carboxamide]
occurrence as metabolite [2]: A process impurity in Intermediate 3 and can be formed as a by-product of the reductive amination in Step 3. This impurity is also a metabolite in female mouse liver microsomes

N#Cc1ccc(O[C@H]2CC[C@H](NC(=O)c3ccc(N4CCC(CN5CCN(c6cc7c(cc6F)C(=O)N(C6CCC(=O)NC6=O)C7=O)CC5)CC4)nn3)CC2)cc1Cl (some centres unmarked) [Spray-Dried Amorphous Compound A]
non-sink dissolution, amorphous vs crystalline (FIG. 11) [3]: Higher concentrations are achieved in the gastric phase of the experiment and sustained in the intestinal phase
Glass Transition Temperature ([4]; Temperature/RH 25/0 (° C./%)): 146 °C
Glass Transition Temperature ([4]; Temperature/RH 40/75 (° C./%)): 103 °C
purity [5, 8]: 95.7%
water (major impurity) [5, 8]: 0.9%
purity [5, 9]: 97.7%
water (major impurity) [5, 9]: 1.62%
purity [5, 10]: 98%
water (major impurity), Karl Fischer titration [5, 10]: 2.16%
recrystallization of the amorphous form ([5]; all three storage conditions, any time during the studies): no evidence of recrystallization
Flux (μg-min^−1-cm^−2) [6]: 0.15 μg-min^−1-cm^−2
AUC [7]: 19400 ng·h/mL
